Seven compounds from US5972898A, “3',3-N-bis-substituted macrolide LHRH antagonists” (Abbott Laboratories, priority 1998, dated 1999) can be followed below.

The target of experiment [1] is T1, LHRH rat pituitary receptor (Rattus norvegicus, UniProt P30969).
T1 construct: from tissue; host or cells: rat pituitary
T1 sequence (P30969 1-327): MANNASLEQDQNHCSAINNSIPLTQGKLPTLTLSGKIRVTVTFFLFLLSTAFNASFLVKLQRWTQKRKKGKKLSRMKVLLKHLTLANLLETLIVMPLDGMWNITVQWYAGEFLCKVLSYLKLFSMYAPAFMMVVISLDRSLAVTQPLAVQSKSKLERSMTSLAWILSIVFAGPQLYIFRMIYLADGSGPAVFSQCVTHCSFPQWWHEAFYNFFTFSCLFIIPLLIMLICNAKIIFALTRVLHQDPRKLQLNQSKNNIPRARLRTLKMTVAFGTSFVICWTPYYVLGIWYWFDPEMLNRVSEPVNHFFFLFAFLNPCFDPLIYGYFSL
Briefly: LHRH rat pituitary receptor binding (pKI). The note with it: in vitro; for Ki: read-out: pKI (receptor binding affinity) (converted). The protocol:
Representative compounds of the present invention were evaluated in in vitro tests for LHRH rat pituitary receptor binding (pKI) and for LH inhibition from rat pituitary cells for antagonist potency (pA2). […] The receptor binding affinity (pKI) is the negative equilibrium dissociation constants.

For the next experiment, the target named is T2, rat pituitary cells (Rattus norvegicus, UniProt P30969).
T2 construct: endogenous in cells; host or cells: rat pituitary cells
T2 sequence (P30969 1-327): T1 sequence (P30969 1-327)
Briefly: LH inhibition from rat pituitary cells for antagonist potency (pA2). In kind it is cell-based. Particulars: negative log of antagonist concentration shifting the leuprolide response curve to two-fold higher concentration. The protocol:
Representative compounds of the present invention were evaluated in in vitro tests for LHRH rat pituitary receptor binding (pKI) and for LH inhibition from rat pituitary cells for antagonist potency (pA2). The tests employed the methods detailed in F. Haviv, et al. J. Med. Chem., 2340-2344 (1989). The receptor binding affinity (pKI) is the negative equilibrium dissociation constants.
The pA2 value is the negative logarithm of the concentration of antagonist which shifts the response curve produced by the agonist leuprolide to two-fold higher concentration. Leuprolide is the LHRH agonist having the structure pyro-Glu^1 -His^2 -Trp^3 -Ser^4 -Tyr^5 -D-Leu^6 -Leu^7 -Arg^8 -Pro^9 -NHEt and is disclosed and claimed in U.S. Pat. No. 4,005,063. Typically pA2 values of 7.0 or greater are indicative of good LHRH antagonist potency.

As for `CC[C@H]1OC(=O)[C@H](C)[C@@H](O[C@H]2C[C@@](C)(OC)[C@@H](O)[C@H](C)O2)[C@H](C)[C@@H](O[C@@H]2O[C@H](C)C[C@H](N(C3CCC3)C3CCC3)[C@H]2O)[C@](C)(OC)C[C@@H](C)C(=O)[C@H](C)[C@H]2N(CCc3ccc(F)c(Cl)c3)C(=O)O[C@]12C` [Example 14, 3',3'-N-Bisdesmethyl-3',3'-N-biscyclobutyl-11-deoxy-11-[carboxy-(3-chloro-4-fluorophenethylamino)]-O-methyl-erythromycin A 11,12-(cyclic carbamate)], in experiment [1], the Ki is 0.251 nM. Besides, the Kb at rat pituitary cells is 0.759 nM.

On to `CC[C@H]1OC(=O)[C@H](C)[C@@H](O[C@H]2C[C@@](C)(OC)[C@@H](O)[C@H](C)O2)[C@H](C)[C@@H](O[C@@H]2O[C@H](C)C[C@H](N(CC3CC3)CC3CC3)[C@H]2O)[C@](C)(OC)C[C@@H](C)C(=O)[C@H](C)[C@H]2N(CCc3ccc(F)c(F)c3)C(=O)O[C@]12C` [Example 17, 3',3'-N-Bisdesmethyl-3',3'-N-biscyclopropylmethyl-11-deoxy-11-[carboxy-(3,4-difluorophenethylamino)]-6-O-methyl-erytromycin A 11,12-(cyclic carbamate)], for which the Ki in experiment [1] was 3.16 nM. For the same compound, the Kb on rat pituitary cells is 1.55 nM.

Consider `CC[C@H]1OC(=O)[C@H](C)[C@@H](O[C@H]2C[C@@](C)(OC)[C@@H](O)[C@H](C)O2)[C@H](C)[C@@H](O[C@@H]2O[C@H](C)C[C@H](N(CC3CC3)CC3CC3)[C@H]2O)[C@](C)(OC)C[C@@H](C)C(=O)[C@H](C)[C@H]2N(CCc3ccc(Cl)c(F)c3)C(=O)O[C@]12C` [Example 13, 3',3'-N-Bisdesmethyl-3',3'-N-biscyclopropylmethyl-11-deoxy-11-[carboxy-(4-chloro-3-fluorophenethylamino)]-6-O-methyl-erythromycin A 11,12-(cyclic carbamate)], for which the Ki in experiment [1] is 1.15 nM. Also, at rat pituitary cells, the Kb was 0.295 nM.

For the compound `CC[C@H]1OC(=O)[C@H](C)[C@@H](O[C@H]2C[C@@](C)(OC)[C@@H](O)[C@H](C)O2)[C@H](C)[C@@H](O[C@@H]2O[C@H](C)C[C@H](N(C3CCC3)C3CCC3)[C@H]2O)[C@](C)(OC)C[C@@H](C)C(=O)[C@H](C)[C@H]2N(CCc3ccc(Cl)c(Cl)c3)C(=O)O[C@]12C` [Example 2], the Ki in experiment [1] is 3.16 nM. The Kb at rat pituitary cells is 5.37 nM.

For the compound “3',3'-N-Bisdesmethyl-3',3'-N-biscyclobutyl-11-deoxy-11-[carboxy-(3,4-difluorophenethylamino)]-6-O-methyl-erythromycin A 11,12-(cyclic carbamate) [Example 18]”, in experiment [1], the “pKI (receptor binding affinity)” value was 9.40. Further, on rat pituitary cells, the pA2 is 8.34.

`CC[C@H]1OC(=O)[C@H](C)[C@@H](O[C@H]2C[C@@](C)(OC)[C@@H](O)[C@H](C)O2)[C@H](C)[C@@H](O[C@@H]2O[C@H](C)C[C@H](N(C3CCC3)C3CCC3)[C@H]2O)[C@](C)(OC)C[C@@H](C)C(=O)[C@H](C)[C@H]2N(CCc3ccc(Cl)cc3)C(=O)O[C@]12C` [Example 4, 3',3'-N-Bisdesmethyl-3',3'-N-biscyclobutyl-11-deoxy-11-[carboxy-(4-chlorophenethylamino)]-6-O-methyl-erythromycin A 11,12-(cyclic carbamate)]: the Ki in experiment [1] was 2.4 nM. Also, the Kb at rat pituitary cells is 0.126 nM.

As to `CC[C@H]1OC(=O)[C@H](C)[C@@H](O[C@H]2C[C@@](C)(OC)[C@@H](O)[C@H](C)O2)[C@H](C)[C@@H](O[C@@H]2O[C@H](C)C[C@H](N(C(C)C)C3CCC3)[C@H]2O)[C@](C)(OC)C[C@@H](C)C(=O)[C@H](C)[C@H]2N(CCc3ccc(Cl)cc3)C(=O)O[C@]12C` [Example 5, 3',3'-N-Bisdesmethyl-3'-N-cyclobutyl-3'-N-isopropyl-11-deoxy-11-[carboxy-(4-chlorophenethylamino)]-6-O-methyl-erythromycin A 11,12-(cyclic carbamate)], the Ki in experiment [1] is 0.832 nM. Besides, the Kb on rat pituitary cells is 0.832 nM.

By Kb is commonly meant the affinity of an antagonist, worked out from how it opposes an agonist. As usually defined, the pA2 is a measure of antagonist potency on a negative log scale.
